From PubChem BioAssay (NCI)
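Method: 48-hour compound exposure of cells in 96-well plates, five concentrations, linear interpolation of endpoints. The concentration for 50% growth inhibition is given as GI50. At the TGI there is no net growth.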

What was measured:
Experiment in all cases: NCI anticancer screen, dose series, 48 h
786-0 renal = system: 786-0 renal
SF-539 CNS = system: SF-539 CNS
IGROV1 ovarian = system: IGROV1 ovarian
UACC-257 melanoma = system: UACC-257 melanoma
HOP-62 NSCLC = system: HOP-62 NSCLC
CAKI-1 renal = system: CAKI-1 renal
SF-295 CNS = system: SF-295 CNS
SK-MEL-28 melanoma = system: SK-MEL-28 melanoma
HCT-116 colon = system: HCT-116 colon
M14 melanoma = system: M14 melanoma
COLO 205 colon = system: COLO 205 colon
OVCAR-8 ovarian = system: OVCAR-8 ovarian
EKVX NSCLC = system: EKVX NSCLC
LOX IMVI melanoma = system: LOX IMVI melanoma
A498 renal = system: A498 renal
NCI/ADR-RES ovarian = system: NCI/ADR-RES ovarian
RXF 393 renal = system: RXF 393 renal
K-562 leukemia = system: K-562 leukemia
A549 NSCLC = system: A549 NSCLC
HT29 colon = system: HT29 colon
OVCAR-4 ovarian = system: OVCAR-4 ovarian
OVCAR-5 ovarian = system: OVCAR-5 ovarian
NCI-H460 lung = system: NCI-H460 lung
BT-549 breast = system: BT-549 breast
OVCAR-3 ovarian = system: OVCAR-3 ovarian
HCC-2998 colon = system: HCC-2998 colon
MOLT-4 leukemia = system: MOLT-4 leukemia
MDA-MB-435 = system: MDA-MB-435
NCI-H226 lung = system: NCI-H226 lung
SK-MEL-5 melanoma = system: SK-MEL-5 melanoma
KM12 colon = system: KM12 colon
U251 CNS = system: U251 CNS
MDA-MB-231 breast = system: MDA-MB-231 breast
HL-60(TB) leukemia = system: HL-60(TB) leukemia
HOP-92 NSCLC = system: HOP-92 NSCLC
UACC-62 melanoma = system: UACC-62 melanoma
HCT-15 colon = system: HCT-15 colon
SNB-19 CNS = system: SNB-19 CNS
NCI-H522 lung = system: NCI-H522 lung
SNB-75 CNS = system: SNB-75 CNS
MALME-3M melanoma = system: MALME-3M melanoma
PC-3 prostate = system: PC-3 prostate
T-47D breast = system: T-47D breast
SK-OV-3 ovarian = system: SK-OV-3 ovarian
SW-620 colon = system: SW-620 colon
SK-MEL-2 melanoma = system: SK-MEL-2 melanoma
UO-31 renal = system: UO-31 renal
HS 578T breast = system: HS 578T breast
TK-10 renal = system: TK-10 renal
SF-268 CNS = system: SF-268 CNS
ACHN renal = system: ACHN renal
SR leukemia = system: SR leukemia
SN12C renal = system: SN12C renal

For `OC1CCN(CCCOc2c3ccc(Cl)cc3nc3c2oc2ccc(Cl)cc23)CC1`, the GI50 (786-0 renal) was 1.13 µM, the TGI (786-0 renal) was 2.49 µM and the GI50 (SF-539 CNS) was 1.36 µM. For the same compound, the TGI (SF-539 CNS) was 2.67 µM, the GI50 (IGROV1 ovarian) was 1.71 µM and the TGI (IGROV1 ovarian) was 15 µM. For the same compound, the GI50 (UACC-257 melanoma) was 1.79 µM, the TGI (UACC-257 melanoma) was 3.68 µM and the GI50 (HOP-62 NSCLC) was 1.85 µM. The TGI (HOP-62 NSCLC) was 12.5 µM, the GI50 (CAKI-1 renal) was 0.877 µM and the TGI (CAKI-1 renal) was 2.12 µM. It also gave a GI50 (SF-295 CNS) of 3.02 µM, a TGI (SF-295 CNS) of 15.8 µM and a GI50 (SK-MEL-28 melanoma) of 1.77 µM. For the same compound, the TGI (SK-MEL-28 melanoma) was 3.18 µM, the GI50 (HCT-116 colon) was 0.417 µM and the TGI (HCT-116 colon) was 1.59 µM. It also gave a GI50 (M14 melanoma) of 1.43 µM, a TGI (M14 melanoma) of 2.84 µM and a GI50 (COLO 205 colon) of 1.16 µM. It also gave a TGI (COLO 205 colon) of 3.18 µM, a GI50 (OVCAR-8 ovarian) of 1.54 µM and a TGI (OVCAR-8 ovarian) of 18.9 µM. It also gave a GI50 (EKVX NSCLC) of 2.84 µM, a TGI (EKVX NSCLC) of 13.2 µM and a GI50 (LOX IMVI melanoma) of 0.298 µM. It also gave a TGI (LOX IMVI melanoma) of 1.42 µM, a GI50 (A498 renal) of 6.74 µM and a TGI (A498 renal) of 21.1 µM. For the same compound, the GI50 (NCI/ADR-RES ovarian) was 0.718 µM, the TGI (NCI/ADR-RES ovarian) was 2.77 µM and the GI50 (RXF 393 renal) was 1.24 µM. It also gave a TGI (RXF 393 renal) of 2.52 µM, a GI50 (K-562 leukemia) of 0.417 µM and a TGI (K-562 leukemia) of 1.93 µM. It also gave a GI50 (A549 NSCLC) of 1.05 µM, a TGI (A549 NSCLC) of 2.5 µM and a GI50 (HT29 colon) of 0.505 µM. It also gave a TGI (HT29 colon) of 1.77 µM, a GI50 (OVCAR-4 ovarian) of 1.24 µM and a TGI (OVCAR-4 ovarian) of 2.79 µM. It also gave a GI50 (OVCAR-5 ovarian) of 1.38 µM, a TGI (OVCAR-5 ovarian) of 2.85 µM and a GI50 (NCI-H460 lung) of 0.465 µM. For the same compound, the TGI (NCI-H460 lung) was 1.99 µM, the GI50 (BT-549 breast) was 4.51 µM and the TGI (BT-549 breast) was 18.9 µM. For the same compound, the GI50 (OVCAR-3 ovarian) was 1.56 µM, the TGI (OVCAR-3 ovarian) was 4.12 µM and the GI50 (HCC-2998 colon) was 0.868 µM. The TGI (HCC-2998 colon) was 15.8 µM, the GI50 (MOLT-4 leukemia) was 0.443 µM and the TGI (MOLT-4 leukemia) was 1.96 µM. The GI50 (MDA-MB-435) was 1.34 µM, the TGI (MDA-MB-435) was 2.7 µM and the GI50 (NCI-H226 lung) was 1.67 µM. It also gave a TGI (NCI-H226 lung) of 4.13 µM, a GI50 (SK-MEL-5 melanoma) of 2.23 µM and a TGI (SK-MEL-5 melanoma) of 5.03 µM. The GI50 (KM12 colon) was 1.06 µM, the TGI (KM12 colon) was 3.61 µM and the GI50 (U251 CNS) was 0.876 µM. The TGI (U251 CNS) was 2.27 µM, the GI50 (MDA-MB-231 breast) was 1.26 µM and the TGI (MDA-MB-231 breast) was 2.87 µM. The GI50 (HL-60(TB) leukemia) was 1.48 µM, the TGI (HL-60(TB) leukemia) was 3.23 µM and the GI50 (HOP-92 NSCLC) was 0.588 µM. The TGI (HOP-92 NSCLC) was 6.77 µM, the GI50 (UACC-62 melanoma) was 1.83 µM and the TGI (UACC-62 melanoma) was 3.78 µM. It also gave a GI50 (HCT-15 colon) of 0.518 µM, a TGI (HCT-15 colon) of 2.07 µM and a GI50 (SNB-19 CNS) of 1.45 µM. It also gave a TGI (SNB-19 CNS) of 3.22 µM, a GI50 (NCI-H522 lung) of 1.8 µM and a TGI (NCI-H522 lung) of 11.1 µM. It also gave a GI50 (SNB-75 CNS) of 2.85 µM, a TGI (SNB-75 CNS) of 16.3 µM and a GI50 (MALME-3M melanoma) of 1.73 µM. The TGI (MALME-3M melanoma) was 3.48 µM, the GI50 (PC-3 prostate) was 1.23 µM and the TGI (PC-3 prostate) was 2.55 µM. It also gave a GI50 (T-47D breast) of 5.77 µM, a TGI (T-47D breast) of 36.5 µM and a GI50 (SK-OV-3 ovarian) of 3.37 µM. For the same compound, the TGI (SK-OV-3 ovarian) was 15.5 µM, the GI50 (SW-620 colon) was 0.455 µM and the TGI (SW-620 colon) was 1.79 µM. The GI50 (SK-MEL-2 melanoma) was 5.32 µM, the TGI (SK-MEL-2 melanoma) was 17.7 µM and the GI50 (UO-31 renal) was 0.768 µM. For the same compound, the TGI (UO-31 renal) was 2.17 µM, the GI50 (HS 578T breast) was 2.75 µM and the TGI (HS 578T breast) was 17.2 µM. It also gave a GI50 (TK-10 renal) of 3.05 µM, a TGI (TK-10 renal) of 8.4 µM and a GI50 (SF-268 CNS) of 1.15 µM. The TGI (SF-268 CNS) was 4.5 µM, the GI50 (ACHN renal) was 0.504 µM and the TGI (ACHN renal) was 1.69 µM. The GI50 (SR leukemia) was 0.595 µM, the TGI (SR leukemia) was 2.62 µM and the GI50 (SN12C renal) was 0.864 µM. It also gave a TGI (SN12C renal) of 2.38 µM.
